Paper PMC6416395, “B1.12: a novel peptide interacting with the extracellular loop of the EBV oncoprotein LMP1” (Scientific Reports, 2019)
*: point of attachment. FITC = O=C1OC2(c3ccc(O)cc3Oc3cc(O)ccc32)c2ccc(NC(=S)*)cc21

B2: B1 peptide (first extracellular loop of LMP1) (peptide)
peptide: CMSDWTGG
notes: first extracellular loop of latent membrane protein 1 (LMP1), Epstein-Barr virus; Made on Rink amide resin, so the C-terminus may be an amide (surmised); also called target B1; B1 loop of LMP1; source: synthetic peptide (solid-phase Fmoc chemistry, RP-HPLC purified)
B3: B1.12 peptide (peptide)
peptide: ACPLDLRSPCG
notes: peptide selected by phage display from the Ph.D.-C7C library against the B1 loop peptide of LMP1; Made on Rink amide MBHA resin, so the C-terminus may be an amide (surmised); also called selected peptide B1.12; source: synthetic peptide (solid-phase Fmoc chemistry, RP-HPLC purified)

Assays:
[1] = test system: LMP1 positive cells (C666.1, HeLa/LMP1); test: Cellular uptake by flow cytometry, LMP1 positive cells; format: cell-based; details: FITC-labeled peptide 100 μM, 24 hours, C666.1 and HeLa/LMP1
Method: (§1) The cellular uptake of the FITC labeled B1.12 peptide/unrelated peptide was analyzed by flow cytometry. C666.1, HeLa/LMP1, and HeLa/Gpt cells, were seeded at a density of 4 × 10^5 cells/mL at 37 °C for 24 hours, and then incubated with 100 μM of both FITC-labeled peptides for 24 hours. Cells were washed three times, trypsinized, centrifuged at 1700 rpm for 5 minutes and then resuspended in 0.35 mL of PBS. The fluorescence associated to the cells was measured using LSR Fortessa X-20 (Becton Dickinson) for HeLa/LMP1 or Attune NxT Flow Cytometer (Thermofisher) cytometer for C666.1 and HeLa/Gpt cells.

[2] = test system: LMP1 negative cells (HeLa/Gpt); test: Cellular uptake by flow cytometry, LMP1 negative cells; format: cell-based; details: FITC-labeled peptide 100 μM, 24 hours
Method: as §1

C666.1 cells = test: Fluorescence microscopy, C666.1; format: cell-based; details: 10 µM FITC-labeled peptide, (1 hour elsewhere in the source), fixed C666.1 cells
Method: To further investigate the fixation of the peptide on C666.1 cells, fluorescence microscopy was performed. […] After being washed with PBS, the fixation of LMP1 was detected by Alexa-fluor 405 labeled secondary antibody (1/100). HeLa/Gpt cells were also stained as described above to serve as negative control. Images were analyzed using an EVOS Floid Cell Imaging Station (Life Technologies).

HeLa/Gpt cells = test: Fluorescence microscopy, HeLa/Gpt; format: cell-based; details: 10 µM FITC-labeled peptide, HeLa/Gpt negative control
Method: To further investigate the fixation of the peptide on C666.1 cells, fluorescence microscopy was performed. Approximately 1 × 10^6 cells were washed 3 times with PBS, fixed with 4% parafolmaldehyde for 15 minutes, blocked by 5 mg/mL BSA for 1 hour, and incubated with 10 μM FITC labeled B1.12 peptide or anti-LMP1 antibody (1/500 Dako) for 1 hour at room temperature. After being washed with PBS, the fixation of LMP1 was detected by Alexa-fluor 405 labeled secondary antibody (1/100). HeLa/Gpt cells were also stained as described above to serve as negative control. Images were analyzed using an EVOS Floid Cell Imaging Station (Life Technologies).

[3] = molecular target: B2; test: ELISA; B1 peptide (100 µg) coated on the plate; about 1 × 10^10 pfu of phage clone added, 1 hour at room temperature; ten washes with 0.5% TBST; anti-M13 antibody and HRP anti-mouse, ABTS; details: both partners purified
B1.12 peptide = molecular target: B3; test: ITC; 30 °C, NaHCO3 buffer 0.1 M pH 5.7; B1 peptide (0.2 mM) in the syringe injected (2 µL per injection) into B1.12 peptide (0.01 mM) in the cell; details: both partners purified
[4] = molecular target: Latent membrane protein 1 (LMP1) on HeLa/LMP1 cells (Epstein-Barr virus) (UniProt P03230); test: ELISA; competitive inhibition on HeLa/LMP1 cells fixed with 4% paraformaldehyde (10^4 cells/well); synthetic peptide 50-200 µM at 37 °C for 1 hour, then B1.12 phage; anti-M13 antibody detection
Sequence of Latent membrane protein 1 (LMP1) on HeLa/LMP1 cells (Epstein-Barr virus) (P03230 whole entry): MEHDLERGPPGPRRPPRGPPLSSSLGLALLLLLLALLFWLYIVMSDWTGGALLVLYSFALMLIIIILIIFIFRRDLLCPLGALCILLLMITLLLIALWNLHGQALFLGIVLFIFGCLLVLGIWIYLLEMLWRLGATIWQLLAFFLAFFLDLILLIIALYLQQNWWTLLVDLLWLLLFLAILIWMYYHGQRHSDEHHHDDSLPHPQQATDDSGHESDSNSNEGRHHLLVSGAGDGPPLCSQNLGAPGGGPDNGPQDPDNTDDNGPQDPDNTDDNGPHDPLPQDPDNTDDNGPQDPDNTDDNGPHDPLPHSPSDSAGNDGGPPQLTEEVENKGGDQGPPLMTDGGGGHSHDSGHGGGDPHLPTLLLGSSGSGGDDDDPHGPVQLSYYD

[5] = molecular target: B2; test: ELISA; competitive inhibition: B1 peptide coated (100 µl of 1 mg/mL in NaHCO3); B1.12 peptide incubated 1 hour at room temperature, then B1.12 phage (2 × 10^10 pfu) 1 hour; bound phage detected by anti-M13 antibody; details: both partners purified

With “FITC-labeled B1.12 peptide: N-terminus FITC labeled B1.12 ({FITC}-ACPLDLRSPCG-NH2; cysteine pairing not given here)” the cellular uptake [1] was “significantly higher uptake”, the cellular binding/uptake [2] was “no binding” and the “colocalization with LMP1” value (C666.1 cells) was “co-localized with LMP1”. The “binding to cells (microscopy)” value (HeLa/Gpt cells) was “no binding was observed”.

B1: B1.12 phage clone (other)
chain: ACPLDLRSPCGGGS
notes: whole phage particles were used and detected with an anti-M13 antibody; also called phage B1.12; positive phage B1.12; source: M13 phage clone from the Ph.D.-C7C library (New England Biolabs), amplified in E. coli ER2738 and titrated; not shown: M13 coat protein pIII (on the phage particle), C-terminal, kept
B1: binds [3].

B2: binds (B1.12 peptide).

B3 was tested, and the inhibition ratio of phage B1.12 binding at 100 µM peptide [4] was 45% and the “inhibition ratio of phage B1.12 binding at 400 µM peptide” value [5] was roughly 43%.
